According to the supplement of paper PMC10307832:

Legend:
Assay in all cases: relative viability (nuclei count vs DMSO), 5 days (fraction); higher = more cells survive
FG-4592 + Palbociclib = compound: Cc1nc(C(=O)NCC(=O)O)c(O)c2ccc(Oc3ccccc3)cc12 [FG-4592] + CC(=O)c1c(C)c2cnc(Nc3ccc(N4CCNCC4)cn3)nc2n(C2CCCC2)c1=O [Palbociclib] (partner 0.5 µM)
In short: (§1)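 Nuclei were stained with Hoechst during a one-step fixation (final 0.05% Triton X-100, 1% formaldehyde, 1 ug/ml Hoechst) carried out 5 days after dosing, then counted on 4× images. The cells, lung cancer lines in 1536-well plates, had been dosed by pin tool the day after seeding with one drug alone or a fixed anchor-drug dose plus five library-drug doses (not always all listed) in √10 steps. Relative viability is the nuclei count in treated wells divided by that in vehicle wells, and each value is the median of duplicate plates.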

FG-4592 + Olaparib = compound: Cc1nc(C(=O)NCC(=O)O)c(O)c2ccc(Oc3ccccc3)cc12 [FG-4592] + O=C(c1cc(Cc2n[nH]c(=O)c3ccccc23)ccc1F)N1CCN(C(=O)C2CC2)CC1 [Olaparib] (partner 8 µM)
In short: as §1

IU1-47 + Palbociclib = compound: CC1=CC(=C(N1C2=CC=C(C=C2)Cl)C)C(=O)CN3CCCCC3 [IU1-47] + CC(=O)c1c(C)c2cnc(Nc3ccc(N4CCNCC4)cn3)nc2n(C2CCCC2)c1=O [Palbociclib] (partner 0.5 µM)
In short: as §1

FG-4592 + Pictilisib = compound: Cc1nc(C(=O)NCC(=O)O)c(O)c2ccc(Oc3ccccc3)cc12 [FG-4592] + CS(=O)(=O)N1CCN(Cc2cc3nc(-c4cccc5[nH]ncc45)nc(N4CCOCC4)c3s2)CC1 [Pictilisib] (partner 1 µM)
In short: as §1

| Cell Line | relative viability (FG-4592 + Palbociclib; first compound 0.08 µM) | relative viability (FG-4592 + Palbociclib; first compound 0.253 µM) | relative viability (FG-4592 + Palbociclib; first compound 0.8 µM) | relative viability (FG-4592 + Palbociclib; first compound 2.53 µM) | relative viability (FG-4592 + Palbociclib; first compound 8 µM) | relative viability (FG-4592 + Olaparib; first compound 0.08 µM) | relative viability (FG-4592 + Olaparib; first compound 0.253 µM) | relative viability (FG-4592 + Olaparib; first compound 0.8 µM) | relative viability (FG-4592 + Olaparib; first compound 2.53 µM) | relative viability (FG-4592 + Olaparib; first compound 8 µM) | relative viability (IU1-47 + Palbociclib; first compound 0.08 µM) | relative viability (IU1-47 + Palbociclib; first compound 0.253 µM) | relative viability (IU1-47 + Palbociclib; first compound 0.8 µM) | relative viability (IU1-47 + Palbociclib; first compound 2.53 µM) | relative viability (IU1-47 + Palbociclib; first compound 8 µM) | relative viability (FG-4592 + Pictilisib; first compound 0.08 µM) | relative viability (FG-4592 + Pictilisib; first compound 0.253 µM) | relative viability (FG-4592 + Pictilisib; first compound 0.8 µM) | relative viability (FG-4592 + Pictilisib; first compound 2.53 µM) | relative viability (FG-4592 + Pictilisib; first compound 8 µM) |
| --- | --- | --- | --- | --- | --- | --- | --- | --- | --- | --- | --- | --- | --- | --- | --- | --- | --- | --- | --- | --- |
| NCI-H1944 | 0.329 | 0.329 | 0.282 | 0.363 | 0.29 | 0.437 | 0.392 | 0.443 | 0.376 | 0.419 | 0.342 | 0.376 | 0.345 | 0.291 | 0.33 | 0.3 | 0.336 | 0.294 | 0.356 | 0.363 |
| NCI-H1975 | 0.511 | 0.534 | 0.53 | 0.437 | 0.379 | 0.786 | 0.747 | 0.883 | 0.849 | 0.721 | 0.586 | 0.547 | 0.868 | 0.611 | 0.364 | 0.284 | 0.266 | 0.259 | 0.253 | 0.244 |
| NCI-H1993 | 0.689 | 0.515 | – | 0.691 | 0.563 | 0.947 | 0.926 | – | 1.01 | 0.929 | 0.854 | 0.698 | 0.659 | 0.558 | 0.513 | 0.834 | 0.774 | 0.854 | 0.851 | 0.66 |
| NCI-H2009 | 0.196 | 0.201 | 0.228 | 0.24 | 0.0739 | 0.663 | 0.637 | 0.715 | 0.718 | 0.621 | 0.225 | 0.229 | 0.208 | 0.21 | 0.231 | 0.718 | 0.653 | 0.647 | 0.671 | 0.749 |
| NCI-H2023 | 0.334 | 0.323 | 0.315 | 0.397 | 0.286 | 0.402 | 0.471 | 0.437 | 0.464 | 0.35 | 0.464 | 0.45 | 0.421 | 0.47 | 0.344 | 0.203 | 0.202 | 0.143 | 0.205 | 0.196 |
| NCI-H2085 | 0.507 | 0.432 | 0.5 | 0.46 | 0.469 | 0.738 | 0.779 | 0.845 | 0.744 | 0.873 | 0.444 | 0.458 | 0.488 | 0.463 | 0.496 | 0.356 | 0.425 | 0.426 | 0.438 | 0.449 |
| NCI-H2087 | 0.284 | 0.203 | 0.198 | – | 0.187 | 0.561 | 0.51 | 0.645 | – | 0.475 | 0.204 | 0.302 | 0.239 | 0.174 | 0.25 | 0.934 | 0.707 | 0.903 | 0.809 | 0.836 |
| NCI-H2126 | 0.335 | 0.358 | 0.324 | 0.372 | 0.334 | 0.964 | 0.846 | 0.857 | 0.876 | 0.919 | 0.392 | 0.352 | 0.359 | 0.364 | 0.395 | 0.487 | 0.483 | 0.449 | 0.511 | 0.531 |
| NCI-H2170 | 0.423 | 0.351 | 0.345 | 0.381 | 0.282 | 0.573 | 0.547 | 0.707 | 0.664 | 0.52 | 0.461 | 0.463 | 0.455 | 0.411 | 0.382 | 0.348 | 0.28 | 0.274 | 0.359 | 0.275 |
| NCI-H2228 | 0.678 | 0.762 | 0.603 | 0.89 | 0.421 | 0.386 | 0.697 | 0.794 | 0.517 | 0.693 | 0.715 | 0.807 | 0.897 | 0.689 | 0.575 | 0.423 | 0.36 | 0.248 | 0.45 | 0.284 |
| NCI-H2347 | 0.421 | 0.433 | 0.41 | 0.454 | 0.407 | 0.622 | 0.485 | 0.543 | 0.596 | 0.607 | 0.39 | 0.474 | 0.436 | 0.43 | 0.438 | 0.0319 | 0.633 | 0.434 | 0.567 | 0.562 |
| NCI-H2405 | 0.454 | 0.449 | 0.48 | 0.46 | 0.442 | 0.752 | 0.772 | 0.948 | 0.809 | 0.859 | 0.539 | 0.593 | 0.531 | 0.539 | 0.506 | – | 0.266 | 0.348 | 0.419 | 0.427 |
| NCI-H3122 | 0.194 | 0.203 | 0.168 | 0.216 | 0.197 | 0.637 | 0.606 | 0.681 | 0.656 | 0.661 | 0.186 | 0.189 | 0.18 | 0.275 | 0.212 | 0.735 | 0.57 | 0.511 | 0.583 | 0.605 |
| PC-3 [JPC-3] | 0.55 | 0.542 | – | 0.557 | 0.567 | 1.1 | 0.975 | – | 1.1 | 1.12 | 0.562 | 0.531 | 0.602 | 0.546 | 0.559 | 0.717 | 0.7 | 0.59 | 0.764 | 0.791 |
| PC-14 | 0.545 | 0.415 | 0.571 | 0.486 | 0.488 | 0.268 | 0.289 | 0.258 | 0.248 | 0.302 | 0.547 | 0.69 | 0.635 | 0.675 | 0.419 | 0.681 | 0.752 | 0.756 | 0.624 | 0.73 |
| RERF-LC-KJ | 1.02 | 0.89 | 0.937 | 1.05 | 1.04 | 0.853 | 0.913 | 0.861 | 0.996 | 0.894 | 1.32 | 1.18 | 1.04 | 1.16 | 1.07 | 0.476 | 0.539 | 0.552 | 0.574 | 0.477 |
| SK-LU-1 | 0.308 | 0.325 | 0.345 | 0.378 | 0.372 | 0.322 | 0.396 | 0.491 | 0.444 | 0.472 | 0.387 | 0.411 | 0.445 | 0.4 | 0.378 | 0.436 | 0.418 | 0.582 | 0.55 | 0.428 |
| SK-MES-1 | 0.331 | 0.287 | 0.284 | 0.32 | 0.327 | 0.655 | 0.624 | 0.786 | 0.748 | 0.66 | 0.282 | 0.332 | 0.292 | 0.34 | 0.273 | 0.358 | 0.361 | 0.318 | 0.367 | 0.383 |
| SW 1573 | 0.342 | 0.368 | 0.382 | 0.31 | 0.238 | 0.426 | 0.632 | 0.597 | 0.612 | 0.483 | 0.357 | 0.385 | 0.379 | 0.509 | 0.31 | 0.504 | 0.402 | 0.443 | 0.56 | 0.484 |
